The target of the assay is T1, human A2a receptor (Homo sapiens, UniProt P29274).
T1 construct: purchased Perkin-Elmer RBHA2AM400UA; host or cells: HEK293
The assay is described as follows: A2a receptor competition binding assay (Scintillation Proximity, tritiated radioligand). The note with it: 0.5 nM tritiated ligand, SPA beads, one hour at room temperature. On the procedure: Binding affinities of compounds of the invention for the human A2a receptor were determined in a competition binding assay using Scintillation Proximity technology. […] The beads were then allowed to settle to the bottom of the wells for 1 hr, after which the membrane-associated radioactivity was determined by scintillation counting in a TopCount microplate reader. Ki values were determined using the Cheng-Prusoff equation.
• HEK293 cells expressing the human, rat, dog or monkey adenosine 2a receptor (Purchased from Perkin-Elmer # RBHA2AM400UA). • The Tritiated compound was prepared in-house by MRL Radiochemistry according to published methods. • Wheatgerm agglutinin-coated yttrium silicate SPA beads (GE Healthcare #RPNQ0023). […] This is a 2.5× solution. The final concentration in the assay is 0.5 nM. Calculate the concentration by counting two 5 ul aliquots. Membrane Preparation • Use 0.25 ug of membrane/well. Dilute membranes to 9.7 ug/ml in assay buffer. Treat with 20 ug/ml adenosine deaminase (ADA) for 15 minutes at room temperature to degrade endogenous adenosine. Membrane-Bead Mixture • Use 100 ug/well wheatgerm agglutinin-coated yttrium silicate SPA beads. • Mix ADA-treated membranes and SPA beads together for 30 min prior to assay. […] Incubate for one hour at room temperature with agitation. • Include total binding (assay buffer+1% DMSO) and non-specific binding (CGS15943, 1 uM) wells. Counting • Allow the beads to settle for one hour. • Count in TopCount. Calculations • A curve fitting program (i.e., Prism, Activity Base, Chemcart) is used to determine the EC50.
The Ki value is calculated using the Cheng-Prusoff equation. Ki=EC50/(1+(radioligand concentration/Kd))
(SPA uses beads or plates that emit light when radiolabelled molecules are held near them.)

Setting [1] is: membranes from HEK293 cells expressing the human A2a receptor, read-out: A2a EC50.
[2] abbreviates: A2a EC50, membranes from HEK293 cells expressing the human A2a receptor.

Where two headings read alike, the source gives them in different places.

T1 sequence (P29274 whole entry): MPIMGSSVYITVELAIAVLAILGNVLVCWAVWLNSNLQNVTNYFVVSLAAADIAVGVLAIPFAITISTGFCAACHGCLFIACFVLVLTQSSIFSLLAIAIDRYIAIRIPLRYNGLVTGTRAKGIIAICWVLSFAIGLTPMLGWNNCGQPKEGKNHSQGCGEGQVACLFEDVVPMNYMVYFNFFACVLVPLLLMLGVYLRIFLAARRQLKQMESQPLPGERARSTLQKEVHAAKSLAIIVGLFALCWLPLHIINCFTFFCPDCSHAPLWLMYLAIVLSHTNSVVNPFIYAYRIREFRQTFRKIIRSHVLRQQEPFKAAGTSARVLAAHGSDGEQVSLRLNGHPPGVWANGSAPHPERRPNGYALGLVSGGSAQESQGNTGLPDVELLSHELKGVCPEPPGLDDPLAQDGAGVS

A word on the EC50: it is the concentration giving half of the maximal effect. On to `COc1cccc2c1nc(N)n1nc(CN3CCN(c4ccc(OCC5CC5)cc4)CC3C)nc21` (stereo not drawn) [Ex-152], for which the EC50 under setting [1] was 2.2 nM.

As to `COc1cccc2c1nc(N)n1nc(CC(=O)N3CCN(c4ccccn4)CC3)nc21` [Ex-153], the half-maximal effective concentration (EC50) under setting [1] worked out at 7.3 nM. Same read-out and setting: with `COc1cccc2c1nc(N)n1nc(CC(=O)N3CCN(c4ccc(F)cc4)C[C@H]3C)nc21` [Ex-154] the figure was 2.6 nM; with `C[C@@H]1CN(c2ccc(F)cc2)CCN1Cc1nc2c3cccc(C(F)(F)F)c3nc(N)n2n1` [Ex-155], 136 nM; with `C[C@@H]1CN(c2ccc(F)cc2)CCN1Cc1nc2c3cccc(C#N)c3nc(N)n2n1` [Ex-156], 740 nM. Same read-out and setting: with `C[C@@H]1CN(c2ccc(F)cc2)CCN1Cc1nc2c3cccc(Br)c3nc(N)n2n1` [Ex-157] the figure was 14.4 nM; with `COc1cccc2c1nc(N)n1nc(CCCN3CCN(c4ccccn4)CC3)nc21` [Ex-158], 7.1 nM; with `Cc1noc2cc(F)c(N3CCN(Cc4nc5c6ccccc6nc(N)n5n4)CC3)cc12` [Ex-160], 343 nM.

Regarding `COCCOc1ccc(N2CCN(Cc3nc4c5ccccc5nc(N)n4n3)CC2)cc1` [Ex-161], under setting [1], the EC50 stood at 525 nM. Regarding `COCCOc1ccc(N2CCN(Cc3nc4c5cc(F)cc(F)c5nc(N)n4n3)CC2)cc1` [Ex-162], under setting [1], the EC50 was 74.2 nM. On the same count and under the same terms, next, `COc1cccc2c1nc(N)n1nc(CCN3CCN(c4ncc(F)cn4)CC3)nc21` [Ex-163]: 7.8 nM; `COc1cccc2c1nc(N)n1nc(CCN3CCN(c4ccc(F)cn4)CC3)nc21` [Ex-164]: 2.5 nM; `COc1cccc2c1nc(N)n1nc(CCN3CCN(c4ccccn4)CC3)nc21` [Ex-165]: 3.3 nM. Still for that read-out and setting: with `COc1cccc2c1nc(N)n1nc(CCN3CCN(c4ccccc4)CC3)nc21` [Ex-166] the figure was 13.5 nM; with `COc1cccc2c1nc(N)n1nc(CCN3CCN(c4ccc(F)cc4)C[C@H]3C)nc21` [Ex-168], 4.1 nM; with `COc1cccc2c1nc(N)n1nc(CCN3CCN(c4ccc(F)cn4)C[C@H]3C)nc21` [Ex-169], 2.6 nM. Same read-out and setting: next, `COc1cccc2c1nc(N)n1nc(CN3CCN(c4ccccn4)CC3)nc21` [Ex-170]: 157 nM; `COc1cccc2c1nc(N)n1nc(CN3CCN(C(=O)OC(C)(C)C)CC3C(F)(F)F)nc21` (stereo not drawn) [Ex-171]: 30.4 nM. In the case of `COc1cccc2c1nc(N)n1nc(CN3CCN(c4ccc(C(F)(F)F)cn4)C[C@H]3C)nc21` [Ex-173], the EC50 under setting [1] was found to be 22.6 nM.

Turning to `COc1cccc2c1nc(N)n1nc(CN3CCN(c4ccc(F)cc4)CC3C(F)F)nc21` (stereo not drawn) [Ex-175], the EC50 under setting [1] turned out to be 5.6 nM. On to `COc1cccc2c1nc(N)n1nc(CN3CCN(c4ccc(F)cc4)CC3CF)nc21` (stereo not drawn) [Ex-176], for which, under setting [1], the EC50 came to 8.9 nM. Turning to `COc1cccc2c1nc(N)n1nc(CN3CCN(c4ccc(F)cc4)CC3C(F)(F)F)nc21` (stereo not drawn) [Ex-177], the EC50 under setting [1] was found to be 12.7 nM. Still for that read-out and setting: next, `COc1ccc(N2CCN(Cc3nc4c5cccc(OC)c5nc(N)n4n3)CC2(C)C)cc1` [Ex-180]: 1.1 nM.

For the compound `COc1cccc2c1nc(N)n1nc(CN3CCN(c4ccc(F)cc4)[C@@H](C)C3)nc21` [Ex-181], under setting [1], the concentration for a half-maximal effect (EC50) stood at 19.9 nM.

Turning to `COc1cccc2c1nc(N)n1nc(CN3CCN(c4ccc(F)cn4)[C@@H](C)C3)nc21` [Ex-182], the EC50 under setting [1] is 10.2 nM. On the same count and under the same terms, with `COc1cccc2c1nc(N)n1nc(CN3CCN(c4ccc(F)cc4)CC3(C)C)nc21` [Ex-183] the figure was 5 nM; with `COc1ccc(N2CCN(Cc3nc4c5cc(F)cc(OC)c5nc(N)n4n3)CC2(C)C)cc1` [Ex-184], 16.4 nM; with `COc1cccc(N2CCN(Cc3nc4c5cc(F)cc(OC)c5nc(N)n4n3)CC2(C)C)c1` [Ex-186], 3.5 nM. The same measure, in the same setting: with `COc1ccccc1N1CCN(Cc2nc3c4cccc(OC)c4nc(N)n3n2)CC1(C)C` [Ex-187] the figure was 5.8 nM; with `CCOC(=O)N1CCN(Cc2nc3c4cccc(OC)c4nc(N)n3n2)C2(CC2)C1` [Ex-188], 12.6 nM; with `COCCOc1ccc(N2CCN(Cc3nc4c5cccc(OC)c5nc(N)n4n3)C3(CC3)C2)cc1` [Ex-189], 3.1 nM. On the same count and under the same terms, next, `COCCOc1cccc(N2CCN(Cc3nc4c5cccc(OC)c5nc(N)n4n3)C3(CC3)C2)c1` [Ex-190]: 6.7 nM; `COc1cccc2c1nc(N)n1nc(CN3CCN(c4ccc(F)cc4)CC34CC4)nc21` [Ex-191]: 8.2 nM. Consider `COc1cccc2c1nc(N)n1nc(CN3CCN(CCF)CC34CC4)nc21` [Ex-192], for which, under setting [1], the EC50 turned out to be 153 nM. Still for that read-out and setting: with `COCCN1CCN(Cc2nc3c4cccc(OC)c4nc(N)n3n2)C2(CC2)C1` [Ex-193] the figure was 128 nM; with `COc1cccc2c1nc(N)n1nc(CN3CCN(S(=O)(=O)C4CC4)CC34CC4)nc21` [Ex-194], 24.8 nM; with `COc1cccc2c1nc(N)n1nc(CN3CCN(c4ccc(F)cc4)C4(CC4)C3)nc21` [Ex-195], 41.6 nM. The same measure, in the same setting: next, `COc1cccc2c1nc(N)n1nc(CN3CCN(CCC(F)(F)F)CC34CC4)nc21` [Ex-196]: 95.7 nM; `COc1cccc2c1nc(N)n1nc(CN3CCN(c4ccc(C(F)(F)F)cn4)CC3(C)C)nc21` [Ex-199]: 10.8 nM; `COc1cccc2c1nc(N)n1nc(CN3CCN(C(=O)c4ccc(C(F)(F)F)cc4)CC3(C)C)nc21` [Ex-200]: 15.6 nM. As for `COc1cccc2c1nc(N)n1nc(CN3[C@H](C)CN(C(=O)c4ccc(F)cc4)C[C@@H]3C)nc21` [Ex-201], under setting [1], the EC50 is 50.2 nM. With `COc1cccc2c1nc(N)n1nc(CN3CCN(C(=O)c4ccc(F)cc4)CC3(C)C)nc21` [Ex-202], under setting [1], the EC50 was determined as 29.1 nM.

For `COc1cccc2c1nc(N)n1nc(CN3C4CCC3C3CCC4N3C(=O)c3ccc(C(F)(F)F)cc3)nc21` [Ex-203], under setting [2], the EC50 came to 8.5 nM.

Under setting [2], `COc1cccc2c1nc(N)n1nc(CN3C4CCC3C3CCC4N3C(=O)c3ccc(F)cc3)nc21` [Ex-204] had an EC50 of 11.5 nM. The same measure, in the same setting: next, `COc1cccc2c1nc(N)n1nc(CN3C4CCC3C3CCC4N3c3ccc(C(F)(F)F)cn3)nc21` [Ex-205]: 4.1 nM; `COc1cc(F)cc2c1nc(N)n1nc(CN3C4CCC3CN(Cc3ccccc3)C4)nc21` [Ex-206]: 30.9 nM. Consider `COc1cc(F)cc2c1nc(N)n1nc(CN3CC4CCC(C3)N4Cc3ccccc3)nc21` [Ex-207], for which the concentration for a half-maximal effect (EC50) under setting [1] worked out at 145 nM. On to `COc1cccc2c1nc(N)n1nc(CN3C4CCC3C3CCC4N3)nc21` [Ex-208], for which a half-maximal response under setting [2] (EC50) required 143 nM. Consider `COc1ccc(CN2CCN(Cc3nc4c5cccc(OC)c5nc(N)n4n3)CC2=O)cc1` [Ex-209], for which, under setting [1], the EC50 came out at 9.4 nM.

For `COc1cccc2c1nc(N)n1nc(CN3CCN(Cc4ccc(C)cc4)C(=O)C3)nc21` [Ex-210], under setting [1], the half-maximal effective concentration (EC50) worked out at 7.7 nM.

As to `COc1cc(F)cc2c1nc(N)n1nc(CN3CCN(Cc4ccc(F)cc4)C(=O)C3)nc21` [Ex-211], the EC50 under setting [1] worked out at 9.9 nM.
